# Laboratory results reported in patent US20250213526A1, “TRIPLE UPTAKE INHIBITOR FOR THE TREATMENT OF ATYPICAL DEPRESSION” (priority 2022, published 2025).
# Entries after “also recorded” stand apart in the source; their conditions may differ.
# Columns and labels:
# Assay type in all cases: in vivo, rat
# male Sprague-Dawley rats = experiment: Binge-like eating of chocolate; details: for chocolate intake vs VEH: 4 h pre-treatment, 1-hr session
# Text: Methods. A new group of male Sprague-Dawley rats (n=8; initial weight 300-325 g) was used for the binge-like eating experiment. They were pair-housed under the same conditions described above, however, they were not food restricted, and in the home cage were allowed ad libitum access to food (laboratory chow) and water. Acquisition of the binge-like eating took place over the course of 12 exposure sessions. A 3-day, 1-hr habituation exposure to an empty feeding cage with a ceramic dish took place before chocolate exposure. With chocolate exposure, rats received chocolate (0.3 g fat, 0.57 g carbohydrate, and 0.073 g protein with a total of 5.34 kcal/g) on days 1, 2, 4, 6, 7, 9, 12, 14, 15, 18, 23, and 28. On exposure days, rats were placed in an empty feeding cage with a ceramic dish containing ground chocolate for 1 hr. Weight of chocolate was taken before and after each session to determine intake.
# Drug Administration. Upon completion of the 12 acquisition sessions of binge-like eating rats continued to be exposed to chocolate sessions twice a week for 1-hr in empty feeding cages with a ceramic dish containing chocolate. One session was for maintenance of the binge-like behavior, and then the second was for drug treatment. These sessions took place randomly throughout the week with the maintenance session always occurring prior to the drug treatment session. Compound 1 was dissolved in 0.3% Tween 80 in dH2O. Vehicle (VEH), or doses of 5.0, 10.0, and 20.0 mg/kg were administered via oral gavage once a week for testing. A pre-treatment lead time of four hours was used. A within-subjects design was used in this study, with each rat receiving one treatment per week for a total of four weeks. Treatment conditions were selected randomly.
# Data Analysis. Repeated measures ANOVA and planned comparisons were used to assess the effect of Compound 1 on binge-like eating of chocolate.
# [1] = tested on: adult male Sprague-Dawley rats; experiment: Sleep/wake parameters, repeated measures; details: first 6 hours post-dosing, n=8
# Procedure: Using a counter-balanced, repeated measures design, three doses of Compound 1 (1-10 mg/kg, p.o.) were tested for their effects on sleep/wake parameters in adult male Sprague-Dawley rats (n=8). The results were compared with the effects on caffeine (10 mg/kg).
# Methods. Eight (n=8) adult male Sprague Dawley rats were used in this study. Each rat received Compound 1 at 3 doses (1, 3 and 10 mg/kg), vehicle (purified H2O-negative control) and caffeine (10 mg/kg—positive control). […] Sleep parameters (non-rapid eye movement sleep, NR; rapid eye movement sleep, REM) were recorded and the first 6 hours post-dosing records were analyzed.
# [2] = tested on: adult male Sprague Dawley rats; experiment: Fixed ratio 1 (FR1) schedule probe
# Text: A fixed ratio 1 (FR1) schedule was used, and this task is the most food dense and appetite dependent operant schedule, with high sensitivity to appetite-related manipulations such as pre-feeding and appetite suppressant drugs.
# Methods. The same adult male Sprague Dawley rats (n=31) as in Example 5 were used in this study. Animals trained once daily on the PROG/Chow feeding choice procedure from Monday through Thursday. On Friday, the testing day, the animals were switched from the PROG/Chow feeding choice procedure to FR1 with no prior training. Each operant session lasted 30 minutes and lever presses were recorded at the end of the run. Drug treatment and the FR1 probe occurred on the Friday after two weeks of washout period from Example 5. A dose of 20.0 mg/kg of Compound 1 or vehicle was administered via oral gavage on the testing day. Only the highest dose was tested in this study because, in Example 5, it produced the most robust decrease in lever pressing and chow intake compared to VEH. Treatment conditions were assigned randomly. Treatment group difference was assessed by unpaired t-test. A p value of <0.05 was considered statistically significant.
# [3] = tested on: adult male Sprague Dawley rats; experiment: Progressive ratio (PROG)/Chow feeding choice task; details: for standard chow intake vs VEH / lever pressing vs VEH: 30-minute session; for chow intake vs VEH, high responders / lever pressing vs VEH, high responders: high responder group (n=15); for lever presses, low responders (chow-intake analysis, FIG. 15) / lever pressing vs VEH, low responders: low responder group (n=16); for lever presses, low responders (chow-intake analysis, FIG. 15): Dunnett's test
# Procedure: The PROG/Chow feeding choice procedure was used as a test designed to evaluate the effort a rat is willing to make to eat a palatable food by pressing a lever instead of eating freely available standard food.
# Methods. Thirty-one (n=31) adult male Sprague Dawley rats were used in this study. The animals were restricted to 85% of their free-feeding weight, with modest growth allowed throughout the study period. Animals were assessed using operant conditioning chambers. Animals were first introduced to the high carbohydrate pellets (“palatable food”) and trained to lever press using a continuous reinforcement schedule with a fixed ration of one (FR1=one active lever press trigger the delivery of the palatable food) for one week. After this, the rats were trained on the progressive ratio (progressively more lever pressures were needed to trigger the delivery of the palatable food) schedule alone for nine weeks at which point chow (“standard food”) was introduced (=PROG/Chow feeding choice procedure), and animals trained for another 5 weeks to acquire a steady baseline. Each session lasted 30 minutes and rats ran in the operant chambers once a day, five days a week (Monday-Friday). Vehicle (VEH), or Compound 1 doses of 5.0, 10.0, and 20.0 mg/kg were administered via oral gavage once a week (Thursday or Friday) after the training period. Treatment conditions were selected randomly. Lever presses and chow consumption (including spillage) were recorded after each operant session.
# Statistical analyses. Repeated measures analysis of variance test (ANOVA) and planned comparisons were used to assess the data overall. Factorial ANOVA was used to assess group x treatment interaction. If significant interactions were found, planned comparisons (using the overall error term) were used to assess the groups individually. Dunnett's tests were also used to analyze differences between drug treatments and VEH. A p value of <0.05 was considered statistically significant for all analyses.
# Male Long Evans Rats = experiment: 5-choice serial reaction time task (5-CSRTT)
# Text: The 5-choice serial reaction time task (5-CSRTT) is widely used to measure attentional performance and response control (motor impulsivity) in rodents. A strength of the test is its adaptability to task modification. Variations to stimulus duration and frequency of stimulus presentation, amongst others, have become commonly used to challenge performance in the context of attention and response control. The primary objective of these studies was to examine the effect of Compound 1 on attentional performance and on aspects of response control, defined as premature responses (PREM) and perseverative responses (PSV), measures of impulsive action, and compulsive action respectively. Two experimental manipulations were undertaken to differentially challenge performance. Specifically, (1) test Compound 1 (1, 3, 10 mg/kg) under standard test conditions of 0.75 s SD, 5 s ITI, 100 trials, and (2) test Compound 1 (1, 3 mg/kg) against a long ITI challenge. The long ITI challenge is designed to elevate PREM and PSV responses and so provide a means to examine the effect of both test articles on measures of impulsive and compulsive action.
# • Dosage form: 0.3% Tween80 in 0.9% Saline • Pretreatment time: 180 minutes
# • Dosage form: Compound 1 was suspended in 0.3% Tween80 in 0.9% Saline and sonicated. Drug was administered at a volume of 5 mL/kg, oral (PO) route. • Pretreatment time: 180 minutes • Doses tested: Phase 1: 1, 3, 10 mg/kg; Phase 2: 1, 3 mg/kg
# Housing and Management of Test System: Following a one-week period of familiarization to the test facility, animals were placed on a restricted diet regimen, in which they were fed approximately 20 g of standard laboratory chow once per day (corresponding to ˜80% of normal food consumption) following the completion of study procedures (between 16:00 h and 18:00 h). Overall food intakes were therefore based on food earned during 5-choice training/testing and chow at the end of each study day. On days where no training/testing occurred, the daily allotted lab chow was increased to approximately 24 g per animal. Water was available ad-libitum except during 5-choice training/testing sessions. Animals were maintained on a 12 h/12 h light/dark cycle with all testing conducted during the animals' light cycle.
# 5-choice serial reaction time task: 5-choice operant chambers were housed in sound-insulated and ventilated enclosures. Chambers consisted of an aluminum enclosure (25×30 cm), containing a reward magazine attached to a food pellet dispenser and house light on one wall, and on the opposite wall an array of 5 square niches (2.5×2.5×2.5 cm) arranged on a curved panel and raised 2.5 cm from the grid floor. An LED was positioned at the rear of each niche. Each niche, and the reward magazine, also contained a photocell to detect head entry. Test chambers were controlled by Med PC software.
# The 5-CSRTT schedule began with the illumination of the house light and delivery of a food pellet. A nose-poke into the magazine tray initiated the first trial which consisted of an inter-trial interval (ITI, 5 s) followed by the random illumination of one of the 5 lights for a fixed interval (stimulus duration, SD). If a nose-poke was registered in the illuminated niche before the end of either the SD, or a fixed interval after this period (limited hold, LH) a further pellet was dispensed and a Correct Trial registered. […] PSV responses were not punished by a TO.
# Each session ran for either 100 trials or 60 min, depending on which session endpoint was achieved first. Animals were trained via a series of steps to final test conditions of 0.75 s SD, 5 s ITI, 5 s limited hold. Target performance was stable performance around a threshold of 80% correct ([correct/(correct+incorrect)]*100) and <20% omissions for at least a two week period. At this point drug testing began according to a repeated measures design with animals receiving treatment over repeated test sessions. […]
# [4] = 10.0 mg/kg oral gavage, n=31, p<0.001
# [5] = 20.0 mg/kg oral gavage, n=31, p<0.001
# [6] = standard conditions 0.75 s SD, 5 s ITI, 100 trials, 1, 3, 10 mg/kg PO, P<0.01
# [7] = standard conditions, 1, 3, 10 mg/kg PO
smiles,measurement,setting,value
"CCC[C@]1(C(=O)c2ccc(Cl)c(Cl)c2)CCNC1 [Compound 1, (3,4-dichloro-phenyl)-((S)-3-propyl-pyrrolidin-3-yl)-methanone]",chocolate intake vs VEH,"male Sprague-Dawley rats; 5.0 mg/kg oral gavage, n=8, n.s.",did not significantly suppress chocolate intake
same,chocolate intake vs VEH,"male Sprague-Dawley rats; 10.0 mg/kg oral gavage, n=8, p<0.001",significant reductions in chocolate intake
same,chocolate intake vs VEH,"male Sprague-Dawley rats; 20.0 mg/kg oral gavage, n=8, p<0.001",significant reductions in chocolate intake
same,binge eating in animal model (FIGS. 8 and 9),"male Sprague-Dawley rats; rat, in vivo",effective in controlling binge eating
same,REM sleep,[1]; 3 mg/kg p.o.,"reduced REM sleep, but to a lesser extent"
same,wake,[1]; 3 mg/kg p.o.,significantly increased wake
same,REM sleep,[1]; 10 mg/kg p.o.,complete suppression of REM sleep
same,wake,[1]; 10 mg/kg p.o.,wake-promoting effects
same,rats that pressed the lever but refrained from eating some of the pellets,[2]; 20.0 mg/kg oral gavage,6 of the 16
same,lever pressing vs VEH in FR1 probe,"[2]; 20.0 mg/kg oral gavage, 30-minute session, unpaired t-test t=9.74, p<0.001",significant decrease in lever pressing
same,uneaten pellets left in the food dishes of these animals,"[2]; 20.0 mg/kg, after the 30-minute operant session",5-10 pellets
same,standard chow intake vs VEH,"[3]; 5.0 mg/kg oral gavage, n=31, p<0.001",significant decreases
same,lever pressing vs VEH,"[3]; 5.0 mg/kg oral gavage, n=31, p=n.s.",No significant difference
same,lever pressing vs VEH,[3]; [4],significant decreases in lever pressing
same,standard chow intake vs VEH,[3]; [4],significant decreases
same,lever pressing vs VEH,[3]; [5],significant decreases in lever pressing
same,standard chow intake vs VEH,[3]; [5],significant decreases
same,overall conclusion on appetite,[3]; 5.0-20.0 mg/kg oral gavage,appetite suppressant effects
same,"chow intake vs VEH, high responders","[3]; 5.0 mg/kg, p<0.010",significant decreases in chow intake
same,"lever pressing vs VEH, high responders","[3]; 5.0 mg/kg, p=n.s.",no significant difference
same,"chow intake vs VEH, high responders","[3]; 10.0 mg/kg, p<0.001",significant decreases in chow intake
same,"lever pressing vs VEH, high responders","[3]; 10.0 mg/kg, p<0.001",significant decreases in lever pressing
same,"chow intake vs VEH, high responders","[3]; 20.0 mg/kg, p<0.001",significant decreases in chow intake
same,"lever pressing vs VEH, high responders","[3]; 20.0 mg/kg, p<0.001",significant decreases in lever pressing
same,"lever presses, low responders (chow-intake analysis, FIG. 15)","[3]; 5.0 mg/kg, p<0.001",significant decreases in lever presses
same,"lever pressing vs VEH, low responders","[3]; 5.0 mg/kg, p=n.s.",no significant differences
same,"lever presses, low responders (chow-intake analysis, FIG. 15)","[3]; 10.0 mg/kg, p<0.001",significant decreases in lever presses
same,"lever pressing vs VEH, low responders","[3]; 10.0 mg/kg, p=n.s.",no significant differences
same,"lever presses, low responders (chow-intake analysis, FIG. 15)","[3]; 20.0 mg/kg, p<0.001",significant decreases in lever presses
same,"lever pressing vs VEH, low responders","[3]; 20.0 mg/kg, p=n.s.",no significant differences
same,PREM responses in low/high impulsive subgroups,"Male Long Evans Rats; 10 s ITI schedule, 1 and 3 mg/kg PO, LI and HI subgroups, P<0.01",main effects of treatment and subgroup x treatment interactions
same,PSV responses in low/high impulsive subgroups,"Male Long Evans Rats; 10 s ITI schedule, 1 and 3 mg/kg PO, LI and HI subgroups, treatment P=0.02, interaction P<0.01",main effects of treatment and subgroup x treatment interactions
same,"any task measure (accuracy % correct, % hit, PREM/PSV responses)","Male Long Evans Rats; 10 s ITI, 0.3 s SD schedule, 1 and 3 mg/kg PO, all N=21 rats, F2,40≤2.5, NS",no main effects of treatment on any measure
same,impulsive behaviors in rats,Male Long Evans Rats; FIGS. 10A and 10B,reduces impulsive behaviors
same,perseverative (PSV) responses relative to vehicle,Male Long Evans Rats; [6],dose-related decrease; also recorded: dose-dependently reduced
same,premature (PREM) responses relative to vehicle,Male Long Evans Rats; [6],dose-related decrease; also recorded: dose-dependently reduced
same,trial number,"Male Long Evans Rats; standard conditions, 10 mg/kg PO",decreased
same,accuracy,Male Long Evans Rats; [7],no main effects of treatment; also recorded: no adverse effects
same,speed of responding,Male Long Evans Rats; [7],no adverse effects
